# Reference: patent US20250057963A1, “DISCOVERY OF PIPERLONGUMINE AS A NOVEL E3 LIGASE LIGAND” (University of Florida Research Foundation, Incorporated, priority 2021, published 2025)
# Entries after “also recorded” stand apart in the source; their conditions may differ.
# Legend:
# [1] = target: T1, E3 ligases interacting with V5-TurboID-CDK9 (Homo sapiens, UniProt Q14145); test: TurboID-bait assay (V5-TurboID-CDK9 in 293T cells) with LC-MS/MS or immunoblot; format: cell-based; conditions: with vs without 955, biotin present
# T1 construct: The biotinylated proteins identified by MS in 293T cells; expressed in transfected cells; host or cells: 293T
# T1 sequence (Q14145 whole entry): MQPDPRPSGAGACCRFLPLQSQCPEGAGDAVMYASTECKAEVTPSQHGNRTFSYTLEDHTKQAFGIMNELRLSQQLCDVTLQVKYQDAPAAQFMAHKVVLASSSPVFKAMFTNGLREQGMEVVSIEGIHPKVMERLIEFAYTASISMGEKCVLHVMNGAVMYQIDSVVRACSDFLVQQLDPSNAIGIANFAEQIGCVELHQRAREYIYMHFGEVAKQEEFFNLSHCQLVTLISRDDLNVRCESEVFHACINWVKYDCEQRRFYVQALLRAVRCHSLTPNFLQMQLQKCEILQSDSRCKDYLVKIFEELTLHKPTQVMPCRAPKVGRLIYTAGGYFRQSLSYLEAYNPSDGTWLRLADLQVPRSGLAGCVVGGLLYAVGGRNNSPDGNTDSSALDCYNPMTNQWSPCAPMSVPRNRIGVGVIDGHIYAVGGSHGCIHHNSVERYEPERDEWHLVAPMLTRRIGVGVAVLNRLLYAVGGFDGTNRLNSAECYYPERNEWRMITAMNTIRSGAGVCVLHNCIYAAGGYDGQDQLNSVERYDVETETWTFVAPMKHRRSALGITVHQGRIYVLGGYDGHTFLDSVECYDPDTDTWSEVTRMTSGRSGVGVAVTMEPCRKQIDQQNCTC
# T1 sequence (P50750 whole entry partner): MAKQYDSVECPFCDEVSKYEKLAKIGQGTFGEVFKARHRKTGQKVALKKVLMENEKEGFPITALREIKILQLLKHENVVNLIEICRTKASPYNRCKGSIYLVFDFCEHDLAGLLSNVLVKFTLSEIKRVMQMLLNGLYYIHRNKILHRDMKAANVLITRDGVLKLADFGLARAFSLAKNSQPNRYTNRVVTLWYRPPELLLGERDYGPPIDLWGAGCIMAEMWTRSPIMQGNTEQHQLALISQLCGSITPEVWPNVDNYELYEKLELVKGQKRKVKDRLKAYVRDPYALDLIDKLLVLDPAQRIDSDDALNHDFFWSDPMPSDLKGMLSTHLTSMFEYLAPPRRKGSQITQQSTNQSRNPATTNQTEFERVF
# Description: (§1) Construction of the pcDNA3-V5-TurboID-CDK9 plasmid. To build the TurboID-bait assay, we first constructed a V5-TurboID-tagged CDK9 plasmid (pDL2518) through Gibson assembly method. The template plasmids HA-CDK9 (a gift from Andrew Rice, plasmid #28102) and V5-TurboID-NES_pCDNA3 (a gift from Alice Ting, plasmid #107169) were purchased from Addgene. The primer pair (5′-cagtctgcggtctgccgaaaagctgcag[…]-3′ and 5′-cagggtcaggcgctccaggggaggcag[…]-3′) and the template HA-CDK9 were used to clone the CDK9 fragment. The two primer pairs: pair-1 (5′-[…]ctgcctcccctggagcgcctgaccctg-3′ and 5′-[…]-3′); pair-2 (5′-[…]-3′ and 5′-[…]ctgcagcttttcggcagaccgcagactg-3′) and the template V5-TurboID-NES_pCDNA3 were used to clone the V5-TurbolD fragment. The PCR fragments were assembled using NEBuilder® HiFi DNAAssembly Master Mix (Cat. No. E2621, NEB, Ipswich, MA, USA). DNA sequences in all these plasmids were authenticated by automatic sequencing.
# (§2) TurboID-bait assay. 293T (6×10^5 for WB detection and 1.2×10^6 for MS) cells were transfected with plasmid V5-TurboID-CDK9 using Lipofectamine 2000 as previously described (Lv et al., 2021). […] Then the cells were harvested and lysed in 1×PBS buffer (Cat. #D1408, Sigma-Aldrich). After centrifugation at 20,000×g for 60 min at 4° C., the supernatant soluble fraction was used for further analysis. […]
# [2] = system: E3 ligases interacting with V5-TurboID-CDK9; test: as above; format: cell-based, Human; conditions: MS of biotinylated proteins with vs without 955
# Description: as §1, §2
smiles,measurement,setting,value
"COc1cc(/C=C/C(=O)N2CCC=CC2=O)cc(OC)c1OCCN1CCN(C(=O)CN2CCC(C(=O)Nc3ncc(SCc4ncc(C(C)(C)C)o4)s3)CC2)CC1 [compound 955, (E)-N-(5-(((5-(tert-butyl)oxazol-2-yl)methyl)thio)thiazol-2-yl)-1-(2-(4-(2-(2,6-dimethoxy-4-(3-oxo-3-(6-oxo-3,6-dihydropyridin-1(2H)-yl)prop-1-en-1-yl)phenoxy)ethyl)piperazin-1-yl)-2-oxoethyl)piperidine-4-carboxamide]",KEAP1 pulled down (immunoblot validation),[1],more KEAP1 could be pulled down; also recorded: significantly more KEAP1 can be pulled down
same,number of E3 ligases recruited to CDK9,[2],6
